# Source: publication PMC9241943, “LcCCL28-25, Derived from Piscine Chemokine, Exhibits Antimicrobial Activity against Gram-Negative and Gram-Positive Bacteria In Vitro and In Vivo” (Microbiology Spectrum, 2022)
# Residues, ends and D or L forms follow the SMILES beside them.
# Legend:
# [1] = tested on: Staphylococcus aureus USA300; conditions: S. aureus USA300
# Description: The MIC assays were performed as previously described ([43]). Briefly, peptides were plated in a 2-fold dilution series (50 μL/well) of Mueller-Hinton broth (MHB) in Costar 96-well cell culture plates (Corning, NY, USA). Three repeats were set for each concentration. E. coli ATCC 25922, A. hydrophila ATCC 7966, P. aeruginosa PAO1, P. aeruginosa FRD1, S. aureus ATCC 25923, S. agalactiae ATCC 13813, S. pneumoniae ATCC 49619, methicillin-resistant S. aureus ATCC 43300, and methicillin-resistant S. aureus USA300 were cultured in Luria-Bertani (LB) medium, while K. pneumoniae CMCC46117 was cultured in tryptic soy broth (TSB) medium. Incubation was done at 37°C and 150 × g for 12 h. Bacteria were transferred to fresh MHB at a ratio of 1% (vol/vol) and incubated to reach a logarithmic growth phase. Then, 50 μL of a bacterial suspension at 4 × 10^6 CFU/mL was added to each well. After incubation at 37°C for 22 ± 2 h, turbidity was measured using an EnSpire multimode plate reader (PerkinElmer, Singapore) at 595 nm.
# [2] = tested on: E. coli ATCC 25922; test: SYTOX green membrane permeability assay; type: cell-based, Escherichia coli; conditions: E. coli ATCC 25922, 5 μM SYTOX green, read every 1 min
# Description: The SYTOX green staining assay was performed to assess peptide-associated membrane damage ([47], [52]). E. coli ATCC 25922 and S. aureus ATCC 25923 cells in the mid-logarithmic phase were collected, washed thrice, and resuspended (5 × 10^7 CFU/mL) in buffer B (10 mM Tris-HCl, pH 7.4, at 25°C). The bacterial suspensions were mixed with 5 μM SYTOX green and incubated for 15 min at room temperature in the dark. Then, the mixtures were added to black, clear-bottom 96-well plates at a density of 100 μL/well. After peptide addition, SYTOX green uptake was monitored using an EnSpire multimode plate reader (PerkinElmer, Singapore) with an excitation wavelength of 485 nm and an emission wavelength of 520 nm. Each measurement interval was 1 min, totaling 30 to 60 times. Melittin was used as the positive control, while bovine serum albumin (BSA) was the negative control.
# [3] = tested on: S. aureus ATCC 25923 cells; test: Scanning and transmission electron microscopy; type: cell-based, Staphylococcus aureus; conditions: S. aureus ATCC 25923, 5 μg/mL, 15 min
# Description: E. coli ATCC 25922 and S. aureus ATCC 25923 cells were cultured and coincubated with or without lcCCL28-25 as described above for fluorescence microscopy.
# For scanning electron microscopy (SEM), bacterial cells were fixed with 2.5% glutaraldehyde in PBS (pH 7.35) and attached to 12-mm cover glasses by centrifugation at 75 × g for 6 min using a Cytospin 2 centrifuge (Thermo Fisher Scientific, Schwerte, Germany). Then, cover glasses with attached bacteria were postfixed in 1% aqueous OsO4 for 30 min, dehydrated in a sequence of increasing ethanol concentrations (70%, 80%, and 100%), and critical point dried in a CPD030 (Leica Microsystems, Vienna, Austria). Next, dried samples were mounted on aluminum stubs using conductive carbon tabs, coated with 4 nm of platinum in a CCU-010 sputtering device (Safematic, Bad Ragaz, Switzerland), and imaged by a Supra 50 VP SEM at an acceleration voltage of 2 kV using the in-lens secondary electron detector (Zeiss, Oberkochen, Germany) ([53]).
# For transmission electron microscopy (TEM), bacterial cells were obtained by centrifugation after overnight fixation in 2.5% glutaraldehyde (pH 7.35, in PBS) at 4°C. […]
compound,measurement,setting,value
CSCC[C@H](NC(=O)[C@H](Cc1c[nH]c2ccccc12)NC(=O)[C@H](CCCCN)NC(=O)[C@@H]1CCCN1C(=O)[C@H](Cc1c[nH]cn1)NC(=O)[C@H](C)N)C(=O)N[C@@H](CCC(=O)O)C(=O)N[C@H](C(=O)N[C@H](C(=O)N[C@@H](CCCNC(=N)N)C(=O)N[C@@H](CO)C(=O)N[C@@H](CCCNC(=N)N)C(=O)N[C@@H](CCC(N)=O)C(=O)N[C@@H](CCCNC(=N)N)C(=O)N[C@@H](CCCCN)C(=O)N[C@@H](CCCCN)C(=O)N[C@@H](CCCCN)C(=O)N[C@@H](Cc1c[nH]cn1)C(=O)N[C@@H](CC(N)=O)C(=O)N[C@@H](CCCCN)C(=O)N[C@@H](CCCNC(=N)N)C(=O)N[C@@H](CCCNC(=N)N)C(=O)N[C@@H](C)C(=O)N[C@H](C(=O)N[C@@H](Cc1ccc(O)cc1)C(=O)O)[C@@H](C)O)C(C)C)C(C)C [lcCCL28-25] (H-AHPKWMEVVRSRQRKKKHNKRRATY-OH; N-terminus and C-terminus assumed),decrease in antimicrobial activity with CaCl2,[1]; 2.5 mM CaCl2 versus peptide only,2 fold
same,decrease in antimicrobial activity with NaCl,[1]; 150 mM NaCl versus peptide only,4 fold
same,reduction of antimicrobial activity under 10% serum,[1]; 10% mouse serum,4 fold
same,reduction of antimicrobial activity under 20% serum,[1]; 20% mouse serum,8 fold
same,reduction of antimicrobial activity under 40% serum,[1]; 40% mouse serum,32 fold
same,SYTOX green fluorescence intensity,[2],did not increase significantly in a short time (20 min)
same,membrane structure (TEM),[3],significant alterations in membrane structure
